In ChEMBL document CHEMBL4706474, “Tetrahydro-2-naphthyl and 2-Indanyl Triazolopyrimidines Targeting Plasmodium falciparum Dihydroorotate Dehydrogenase Display Potent and Selective Antimalarial Activity” (J Med Chem, 2016):
Converted amounts (≈) assume the structure as drawn.

Legend:
[1] = Unbound AUC (0 to infinity) in Swiss mouse at 10 mg/kg, po by LC-MS analysis; format: ADME, organism-based; conditions: in vivo
[2] = Protein binding in mouse plasma assessed as bound fraction by LC-MS analysis based ultracentrifugation assay; format: ADME, cell-free; conditions: read-out: PPB (converted)
[3] = Unbound volume of distribution at steady state in Sprague-Dawley rat at […], iv by LC-MS analysis; format: ADME, organism-based; conditions: in vivo, dose 2.6 mg/kg
[4] = Unbound AUC (0 to infinity) in Sprague-Dawley rat at 18.8 mg/kg, po by LC-MS analysis; format: ADME, organism-based; conditions: in vivo
[5] = Intrinsic clearance in rat liver microsomes assessed per mg protein at 1 uM by LC-MS analysis; format: ADME, Microsome
[6] = AUC (0 to infinity) in Sprague-Dawley rat at […], iv by LC-MS analysis; format: ADME, organism-based; set-up: time infinity, route intravenous, dose 2.6 mg/kg; conditions: in vivo
[7] = Unbound Cmax in Swiss mouse at 10 mg/kg, po by LC-MS analysis; format: ADME, organism-based; conditions: in vivo
[8] = Intrinsic clearance in mouse liver microsomes at 1 uM by LC-MS analysis; format: ADME, Microsome
[9] = Protein binding in rat plasma assessed as bound fraction by LC-MS analysis based ultracentrifugation assay; format: ADME, cell-free; conditions: read-out: PPB (converted)
[10] = Unbound Cmax in Sprague-Dawley rat at 18.8 mg/kg, po by LC-MS analysis; format: ADME, organism-based; conditions: in vivo
[11] = Protein binding in Swiss mouse plasma at 10 mg/kg, po administered as single dose via gavage measured over 24 hrs by LC-MS analysis; format: ADME, organism-based; conditions: read-out: PPB (converted)
[12] = Unbound Clearance in Sprague-Dawley rat at […], iv by LC-MS analysis; format: ADME, organism-based; conditions: in vivo, dose 2.6 mg/kg
Plasmodium falciparum [13] = assay: Antiplasmodial activity against Plasmodium falciparum 3D7 infected in po dosed NSG mouse assessed as reduction in parasitemia administered twice daily for 4 consecutive days starting from day 3 post-infection and measured 24 hrs post last dose by flow cytometric analysis; format: functional; conditions: 3D7, po, 96 h, time 4 day
[14] = Solubility of compound in 0.1 N HCl measured after 5 to 6 hrs by HPLC-UV based analysis; format: physicochemical; conditions: buffer; time 5-6 hrs
Plasmodium falciparum [15] = assay: Antiplasmodial activity against Plasmodium falciparum 3D7 infected in RBC assessed as reduction in parasitemia incubated for 72 hrs by SYBR green dye-based assay; format: functional, organism-based
[16] = Unbound AUC (0 to infinity) in Sprague-Dawley rat at […], iv by LC-MS analysis; format: ADME, organism-based; conditions: in vivo, dose 2.6 mg/kg
[17] = Intrinsic clearance in human pooled liver microsomes assessed per mg protein at 1 uM by LC-MS analysis; format: ADME, Microsome; conditions: pooled human liver microsomes
Plasmodium falciparum [18] = assay: Antiplasmodial activity against Plasmodium falciparum 3D7 infected in po dosed NSG mouse assessed as blood AUC level require to show 90% reduction in parasitemia administered once daily for 4 consecutive days starting from day 3 post-infection and measured 24 hrs post last dose by flow cytometric analysis; format: functional, organism-based; conditions: time 4.0 day
[19] = Protein binding in Sprague-Dawley rat plasma at […], iv administered as infusion for 10 mins by LC-MS analysis; format: ADME, organism-based; conditions: dose 2.6 mg/kg, read-out: PPB (converted)
[20] = Apparent half-life in Swiss mouse at 20 mg/kg, po administered as single dose via gavage measured over 24 hrs by LC-MS analysis; format: ADME, organism-based; conditions: in vivo
[21] = Oral bioavailability in Sprague-Dawley rat at 24.4 mg/kg measured over 24 hrs by LC-MS analysis; format: ADME, organism-based; conditions: in vivo
[22] = Unbound Cmax in Sprague-Dawley rat at 24.4 mg/kg, po measured over 24 hrs by LC-MS analysis; format: ADME, organism-based; conditions: in vivo
[23] = Cmax in Swiss mouse at 20 mg/kg, po administered as single dose via gavage measured over 24 hrs by LC-MS analysis; format: ADME, organism-based; set-up: route oral, dose 20 mg/kg, time >24; conditions: in vivo
[24] = Unbound AUC (0 to infinity) in Sprague-Dawley rat at 24.4 mg/kg, po measured over 24 hrs by LC-MS analysis; format: ADME, organism-based; conditions: in vivo
in vivo = conditions: Sprague-Dawley, rat, po, 24.4 mg/kg
[25] = Elimination half-life in Swiss mouse at 20 mg/kg, po administered as single dose via gavage measured over 24 hrs by LC-MS analysis; format: ADME, organism-based; conditions: in vivo, read-out: beta t1/2 (converted)
[26] = Inhibition of N-terminal His6-tagged dog DHODH expressed in Escherichia coli BL21 using L-DHO as substrate and CoQ as co-substrate by DCIP dye based spectrophotometric assay; set-up: species or system Canis lupus familiaris
[27] = Solubility of compound in FaSSIF at pH 6.5 measured after 5 to 6 hrs by HPLC-UV based analysis
[28] = Protein binding in human plasma assessed as bound fraction by LC-MS analysis based ultracentrifugation assay; format: ADME, cell-free; conditions: read-out: PPB (converted)
[29] = Tmax in Swiss mouse at 20 mg/kg, po administered as single dose via gavage measured over 24 hrs by LC-MS analysis; format: ADME, organism-based; conditions: in vivo
[30] = AUC (0 to infinity) in Swiss mouse at 20 mg/kg, po administered as single dose via gavage measured over 24 hrs by LC-MS analysis; format: ADME, organism-based; set-up: route oral, dose 20 mg/kg, time >24; conditions: in vivo
[31] = Volume of distribution at steady state in Sprague-Dawley rat at 2 mg/kg, iv administered as infusion for 10 mins by LC-MS analysis; format: ADME, organism-based; conditions: in vivo
[32] = Cmax in Sprague-Dawley rat at 24.4 mg/kg, po measured over 24 hrs by LC-MS analysis; format: ADME, organism-based; set-up: route oral, dose 24.4 mg/kg, time >24; conditions: in vivo
[33] = Unbound AUC (0 to infinity) in Sprague-Dawley rat at 2 mg/kg, iv by LC-MS analysis; format: ADME, organism-based; conditions: in vivo
[34] = Solubility of compound in FeSSIF at pH 5.8 measured after 5 to 6 hrs by HPLC-UV based analysis; format: physicochemical; conditions: simulated gi fluid, time 5-6 hrs
[35] = Unbound AUC (0 to infinity) in Swiss mouse at 20 mg/kg, po administered as single dose via gavage measured over 24 hrs by LC-MS analysis; format: ADME, organism-based; conditions: in vivo
[36] = Inhibition of N-terminal His6-tagged Plasmodium falciparum DHODH expressed in Escherichia coli BL21 using L-DHO as substrate and CoQ as co-substrate by DCIP dye based spectrophotometric assay
[37] = Apparent half-life in Sprague-Dawley rat at 2 mg/kg, iv administered as infusion for 10 mins by LC-MS analysis; format: ADME, organism-based; conditions: in vivo, read-out: t1/2(app) (converted)
[38] = AUC (0 to infinity) in Sprague-Dawley rat at 2 mg/kg, iv administered as infusion for 10 mins by LC-MS analysis; format: ADME, organism-based; set-up: route intravenous, dose 2 mg/kg, time 10 min; conditions: in vivo
[39] = Lipophilicity, logD of the compound at pH 7.4; format: physicochemical; conditions: buffer
[40] = Unbound Cmax in Swiss mouse at 20 mg/kg, po administered as single dose via gavage measured over 24 hrs by LC-MS analysis; format: ADME, organism-based; conditions: in vivo
[41] = Kinetic solubility of compound in phosphate buffer at pH 6.5 measured after 30 mins by HPLC-UV based analysis; format: physicochemical; conditions: phosphate buffer, pH 6.5, read-out: Kinetic_solubility
[42] = Protein binding in Swiss mouse plasma at 20 mg/kg, po administered as single dose via gavage measured over 24 hrs by LC-MS analysis; format: ADME, organism-based; conditions: read-out: PPB (converted)
[43] = Protein binding in Sprague-Dawley rat plasma at 2 mg/kg, iv administered as infusion for 10 mins by LC-MS analysis; format: ADME, organism-based; conditions: read-out: PPB (converted)
[44] = Unbound volume of distribution at steady state in Sprague-Dawley rat at 2 mg/kg, iv administered as infusion for 10 mins by LC-MS analysis; format: ADME, organism-based; conditions: in vivo
Cytochrome P450 3A4 = Cytochrome P450 3A4 (Homo sapiens, UniProt P08684); assay: Inhibition of CYP3A4 in human liver microsomes using isoform-specific probe substrates in presence of NADPH-generating system by LC-MS analysis; format: ADME
Chain of Cytochrome P450 3A4 (P08684 whole entry, canonical isoform): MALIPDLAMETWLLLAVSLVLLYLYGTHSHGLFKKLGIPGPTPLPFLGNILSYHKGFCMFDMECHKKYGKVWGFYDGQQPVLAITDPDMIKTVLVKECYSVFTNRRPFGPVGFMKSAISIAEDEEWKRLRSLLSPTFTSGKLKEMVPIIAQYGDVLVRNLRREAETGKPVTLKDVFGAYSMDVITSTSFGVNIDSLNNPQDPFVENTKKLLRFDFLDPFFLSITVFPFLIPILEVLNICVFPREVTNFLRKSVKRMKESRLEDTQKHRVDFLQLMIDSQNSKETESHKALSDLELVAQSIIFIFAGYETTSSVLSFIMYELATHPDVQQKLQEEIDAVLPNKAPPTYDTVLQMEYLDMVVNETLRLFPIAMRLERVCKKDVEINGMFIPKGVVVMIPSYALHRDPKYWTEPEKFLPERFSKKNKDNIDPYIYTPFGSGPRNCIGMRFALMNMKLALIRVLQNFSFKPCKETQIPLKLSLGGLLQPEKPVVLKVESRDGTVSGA

[45] = AUC (0 to infinity) in Sprague-Dawley rat at 24.4 mg/kg, po measured over 24 hrs by LC-MS analysis; format: ADME, organism-based; set-up: route oral, dose 24.4 mg/kg, time >24; conditions: in vivo
[46] = Inhibition of N-terminal His6-tagged Plasmodium vivax DHODH expressed in Escherichia coli BL21 using L-DHO as substrate and CoQ as co-substrate by DCIP dye based spectrophotometric assay
[47] = Unbound clearance in Sprague-Dawley rat at 2 mg/kg, iv administered as infusion for 10 mins by LC-MS analysis; format: ADME, organism-based; conditions: in vivo

Cc1cc(Nc2ccc(S(F)(F)(F)(F)F)cc2)n2nc(C(C)(F)F)nc2n1 [DSM-265]
fAUC [1]: 0.07 µM·h
fraction unbound [2]: 0.003
fVdss [3]: 257 L/kg
fAUC [4]: 2.8 µM·h
microsomal CLint at 1 µM ([5]; rat liver microsomes, read-out: CLH): 1.8 µL/min/mg
AUC(0-inf) [6]: 17.4 µM·h
fCmax [7]: 0.01 µM
intrinsic clearance [8]: 2.8 µL/min
fraction unbound [9]: 0.023
fCmax [10]: 0.09 µM
fraction unbound at 24 h [11]: 0.003
CL free [12]: 263 mL/min/kg
ED90 (Plasmodium falciparum [13]): 3 mg/kg
solubility [14]: 6.8 µg/mL (≈ 16.4 µM)
EC50 (Plasmodium falciparum [15]; Plasmodium falciparum, 3D7, Erythrocyte, 72 h): 4.3 nM
fAUC [16]: 0.4 µM·h
microsomal CLint at 1 µM [17]: 4.3 µL/min/mg
AUCED90 (Plasmodium falciparum [18]): 30.8 µM.hr/day
fraction unbound at 10 min [19]: 0.023

Cc1cc(NC2CCc3cc(Br)ccc3C2)n2nc(C(C)(F)F)nc2n1 (stereo in doubt)
t1/2(app) [20]: 2.1 h
bioavailability [21]: 86%
fraction unbound [2]: 0.008
fCmax [22]: 0.11 µM
Intrinsic clearance in rat liver microsomes (uL/min/mg protein) ([5]; microsomes, 1 µM): 11 µL/min
Cmax [23]: 8.6 µM
fAUC [24]: 0.95 µM·h
Tmax at 24 h (in vivo): 2.5 h
half-life [25]: 2 h
intrinsic clearance [8]: 26 µL/min
fraction unbound [9]: 0.003
IC50 [26]: > 100000 nM
solubility [27]: 13 µg/mL (≈ 30.8 µM)
fraction unbound [28]: 0.01
solubility [14]: 189 µg/mL (≈ 448 µM)
Tmax [29]: 1 h
EC50 (Plasmodium falciparum [15]; rbc): 2.6 nM
AUC [30]: 51 µM·h
Vdss [31]: 1.1 L/kg
Cmax [32]: 37 µM
fAUC [33]: 0.09 µM·h
solubility [34]: 211 µg/mL (≈ 500 µM)
fAUC [35]: 0.41 µM·h
IC50 [36]: 4.6 nM
half-life [37]: 6.2 h
AUC(0-inf) [38]: 30 µM·h
logD [39]: 4
fCmax [40]: 0.07 µM
solubility kinetic at 0.5 h [41]: 3.1 µg/mL (≈ 7.34 µM)
fraction unbound at 24 h [42]: 0.008
fraction unbound at 10 min [43]: 0.003
fVdss [44]: 367 L/kg
IC50 (Cytochrome P450 3A4): > 20000 nM
AUC(0-inf) [45]: 318 µM·h
IC50 [46]: 24 nM
CL free [47]: 933 mL/min/kg
